± gives the standard deviation of the averaged measurements.
What was measured:
[1] = test system: U-2 OS; assay: intracellular GSH:GSSG ratio (calculated); higher = more reduced glutathione pool; conditions: 24 h
Procedure: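 Intracellular glutathione in U-2 OS cells after 24 h compound treatment at 5, 10 and 20 uM (some at 40 and 80 uM). Total glutathione and GSSG were measured with the GSH/GSSG-Glo kit, and the GSH:GSSG ratio was calculated. Mean of five technical replicate plates.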

[2] = test system: U-2 OS; assay: cell viability (CellTiter-Glo) relative to DMSO (% of control); higher = more viable; conditions: 24 h
Procedure: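 Cell viability of U-2 OS cells by CellTiter-Glo after 24 h compound treatment at 5, 10 and 20 uM (some at 40 and 80 uM), measured in parallel with the glutathione assay, as percent of DMSO control. Five technical replicate plates, averaged.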

[3] = test system: U-2 OS; assay: relative cell count vs DMSO (cell painting) (fraction of DMSO control); higher = more cells remaining (less cytotoxic); conditions: 24 h
Method in brief: (§1)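 Cell painting used U-2 OS cells at about 1,500 per well in 384-well plates, treated by pin tool for 24 h at 37 °C, usually at six 2-fold concentrations from 20 μM to 625 nM. Cells were stained with MitoTracker, concanavalin A, phalloidin, wheat germ agglutinin, Hoechst and SYTO 14 and imaged on an Opera Phenix. Features were extracted with CellProfiler and normalized to DMSO cells on the same plate. The activity score is the Mahalanobis distance from DMSO wells; cell count is relative to DMSO wells. Values are means of four replicate plates.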

[4] = test system: U-2 OS; assay: cell painting activity score (Mahalanobis distance from DMSO wells); higher = stronger morphological phenotype; conditions: 24 h
Method in brief: as §1

[5] = test system: U-2 OS; assay: total intracellular glutathione (GSH + GSSG) relative to DMSO (% of control); higher = more glutathione; conditions: 24 h
Procedure: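 Total intracellular glutathione (GSH + GSSG) in U-2 OS cells by GSH/GSSG-Glo after 24 h compound treatment at 5, 10 and 20 uM (some at 40 and 80 uM), as percent of DMSO control. Five technical replicate plates, averaged.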

[6] = test system: U-2 OS; assay: AUC of culture confluence over time (live-cell imaging) (AUC (confluence % x time)); higher = more confluent culture (less growth inhibition)
Method in brief: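 The value is the area under the curve of confluence plotted against time. U-2 OS cells in F-12K medium with 10% FBS were seeded at 750 per well in 384-well plates, then treated by pin tool 24 h later, most compounds at 20, 10 and 5 μM with 0.2% DMSO. At 37 °C, an Incucyte S3 with a 10x objective imaged the wells every 4 h for up to 60 h.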

SMILES: COc1ccc(C[C@H](N)C(=O)N[C@H]2[C@@H](O)[C@H](n3cnc4c(N(C)C)ncnc43)O[C@@H]2CO)cc1
- intracellular GSH:GSSG ratio ([1]; 5 µM): 3.09
- intracellular GSH:GSSG ratio ([1]; 10 µM): 1.12
- cell viability ([2]; 5 µM): 10.2 ± 1.6
- cell viability ([2]; 10 µM): 2.46 ± 0.44
- cell viability ([2]; 20 µM): 1.28 ± 0.26
- relative cell count ([3]; 0.625 µM): 1.04
- relative cell count ([3]; 1.25 µM): 0.891
- relative cell count ([3]; 2.5 µM): 0.637
- relative cell count ([3]; 5 µM): 0.283
- relative cell count ([3]; 10 µM): 0.157
- relative cell count ([3]; 20 µM): 0.0622
- cell painting activity score ([4]; 0.625 µM): 13.8
- cell painting activity score ([4]; 1.25 µM): 17.7
- cell painting activity score ([4]; 2.5 µM): 20.2
- cell painting activity score ([4]; 5 µM): 25.3
- cell painting activity score ([4]; 10 µM): 32.9
- cell painting activity score ([4]; 20 µM): 33.9
- total intracellular glutathione ([5]; 5 µM): 12.5 ± 1.3
- total intracellular glutathione ([5]; 10 µM): 4.88 ± 0.7
- total intracellular glutathione ([5]; 20 µM): 4.55 ± 0.68

SMILES: C[C@@H]1CC[C@@]2(OC1)O[C@H]1[C@@H](O)[C@H]3[C@@H]4CC[C@H]5C[C@@H](O[C@@H]6O[C@H](CO)[C@H](O[C@@H]7O[C@H](CO)[C@@H](O)[C@H](O[C@@H]8OC[C@@H](O)[C@H](O)[C@H]8O)[C@H]7O[C@@H]7O[C@H](CO)[C@H](O)[C@H](O[C@@H]8O[C@H](CO)[C@@H](O)[C@H](O)[C@H]8O)[C@H]7O)[C@H](O)[C@H]6O)[C@H](O)C[C@]5(C)[C@H]4CC[C@]3(C)[C@H]1[C@@H]2C
- intracellular GSH:GSSG ratio ([1]; 5 µM): 13.7
- intracellular GSH:GSSG ratio ([1]; 10 µM): 20.4
- intracellular GSH:GSSG ratio ([1]; 20 µM): 11.7
- cell viability ([2]; 5 µM): 64.5 ± 5.7
- cell viability ([2]; 10 µM): 36.8 ± 12
- cell viability ([2]; 20 µM): 8.23 ± 3.5
- relative cell count ([3]; 0.625 µM): 0.85
- relative cell count ([3]; 1.25 µM): 0.742
- relative cell count ([3]; 2.5 µM): 0.753
- relative cell count ([3]; 5 µM): 0.19
- relative cell count ([3]; 10 µM): 0.117
- relative cell count ([3]; 20 µM): 0.0498
- cell painting activity score ([4]; 0.625 µM): 7.99
- cell painting activity score ([4]; 1.25 µM): 7.32
- cell painting activity score ([4]; 2.5 µM): 7.71
- cell painting activity score ([4]; 5 µM): 8.51
- cell painting activity score ([4]; 10 µM): 13.6
- cell painting activity score ([4]; 20 µM): 28.6
- total intracellular glutathione ([5]; 5 µM): 76.2 ± 7.3
- total intracellular glutathione ([5]; 10 µM): 45.1 ± 18
- total intracellular glutathione ([5]; 20 µM): 21 ± 4.2

SMILES: CC(Cc1ccc(O)c(O)c1)C(C)Cc1ccc(O)c(O)c1 (stereo not drawn)
- intracellular GSH:GSSG ratio ([1]; 5 µM): 24
- intracellular GSH:GSSG ratio ([1]; 10 µM): 47.5
- intracellular GSH:GSSG ratio ([1]; 20 µM): 22.3
- intracellular GSH:GSSG ratio ([1]; 40 µM): 22.5
- cell viability ([2]; 5 µM): 101 ± 4
- cell viability ([2]; 10 µM): 104 ± 8.2
- cell viability ([2]; 20 µM): 100 ± 5.4
- cell viability ([2]; 40 µM): 87.1 ± 6.5
- cell viability ([2]; 80 µM): 0.624 ± 0.073
- AUC of culture confluence over time ([6]; 5 µM): 42.1
- AUC of culture confluence over time ([6]; 10 µM): 39.8
- AUC of culture confluence over time ([6]; 20 µM): 43.8
- AUC of culture confluence over time ([6]; 40 µM): 28.7
- AUC of culture confluence over time ([6]; 80 µM): 19.1
- relative cell count ([3]; 0.625 µM): 0.839
- relative cell count ([3]; 1.25 µM): 0.852
- relative cell count ([3]; 2.5 µM): 0.896
- relative cell count ([3]; 5 µM): 0.816
- relative cell count ([3]; 10 µM): 0.835
- relative cell count ([3]; 20 µM): 0.359
- relative cell count ([3]; 40 µM): 0.261
- relative cell count ([3]; 80 µM): 0.228
- cell painting activity score ([4]; 0.625 µM): 4.39
- cell painting activity score ([4]; 1.25 µM): 8.68
- cell painting activity score ([4]; 2.5 µM): 11.8
- cell painting activity score ([4]; 5 µM): 13.1
- cell painting activity score ([4]; 10 µM): 15.4
- cell painting activity score ([4]; 20 µM): 12.1
- cell painting activity score ([4]; 40 µM): 17.4
- cell painting activity score ([4]; 80 µM): 22.6

SMILES: COc1cc(/C=C/C(=O)CC(=O)/C=C/c2ccc(O)c(OC)c2)ccc1O
- intracellular GSH:GSSG ratio ([1]; 5 µM): 16.9
- intracellular GSH:GSSG ratio ([1]; 10 µM): 10.3
- intracellular GSH:GSSG ratio ([1]; 20 µM): 6.3
- intracellular GSH:GSSG ratio ([1]; 40 µM): 4.46
- intracellular GSH:GSSG ratio ([1]; 80 µM): 0.7
- cell viability ([2]; 5 µM): 101 ± 7.1
- cell viability ([2]; 10 µM): 90 ± 6.6
- cell viability ([2]; 20 µM): 70.2 ± 3.2
- cell viability ([2]; 40 µM): 40.9 ± 2.8
- cell viability ([2]; 80 µM): 36.2 ± 3.8
- relative cell count ([3]; 0.625 µM): 0.919
- relative cell count ([3]; 1.25 µM): 0.894
- relative cell count ([3]; 2.5 µM): 0.876
- relative cell count ([3]; 5 µM): 0.892
- relative cell count ([3]; 10 µM): 0.772
- relative cell count ([3]; 20 µM): 0.482
- cell painting activity score ([4]; 0.625 µM): 3.83
- cell painting activity score ([4]; 1.25 µM): 3.58
- cell painting activity score ([4]; 2.5 µM): 4.65
- cell painting activity score ([4]; 5 µM): 6.94
- cell painting activity score ([4]; 10 µM): 9.69
- cell painting activity score ([4]; 20 µM): 10.7
- total intracellular glutathione ([5]; 5 µM): 112 ± 20
- total intracellular glutathione ([5]; 10 µM): 116 ± 3.4
- total intracellular glutathione ([5]; 20 µM): 100 ± 5.8
- total intracellular glutathione ([5]; 40 µM): 44.2 ± 2.1
- total intracellular glutathione ([5]; 80 µM): 41.5 ± 3.5
